Test results reported in ChEMBL document CHEMBL5223117, “Synthesis and biological evaluation of novel N, N'-diarylurea derivatives as potent antibacterial agents against MRSA” (Bioorg Med Chem Lett, 2022).
≈ marks a conversion by molar mass, not a printed value.

Experiments:
Staphylococcus aureus [1] = test: Bactericidal activity against methicillin resistant Staphylococcus aureus 16-30; assay type: functional
Staphylococcus aureus [2] = test: Antibacterial activity against methicillin sensitive Staphylococcus aureus ATCC 29213; assay type: functional
Enterococcus faecalis [3] = test: Antibacterial activity against Vanomycin-resistant Enterococcus faecalis ATCC 51299; assay type: functional
Staphylococcus aureus [4] = test: Selectivity ratio of MBC for bactericidal activity against methicillin resistant Staphylococcus aureus ATCC 43300 to MIC for antibacterial activity against methicillin resistant Staphylococcus aureus ATCC 43300; assay type: functional
Staphylococcus aureus [5] = test: Antibacterial activity against vancomycin intermediate and methicillin resistant Staphylococcus aureus ATCC 700699; assay type: functional
Staphylococcus aureus [6] = test: Antibacterial activity against methicillin sensitive Staphylococcus aureus 20-12; assay type: functional
Staphylococcus aureus [7] = test: Antibacterial activity against vancomycin intermediate and methicillin resistant Staphylococcus aureus ATCC 700698; assay type: functional
Staphylococcus aureus [8] = test: Antibacterial activity against methicillin resistant Staphylococcus aureus 18-2; assay type: functional
[9] = Cytotoxicity against human HepG2 cells by SRB assay; assay type: toxicity, cell-based
Enterococcus faecium [10] = test: Antibacterial activity against Vanomycin-resistant Enterococcus faecium ATCC 700221; assay type: functional
Enterococcus faecalis [11] = test: Antibacterial activity against Vanomycin-resistant Enterococcus faecalis ATCC 51575; assay type: functional
Staphylococcus aureus [12] = test: Bactericidal activity against methicillin resistant Staphylococcus aureus ATCC 43300; assay type: functional
Staphylococcus aureus [13] = test: Antibacterial activity against methicillin resistant Staphylococcus aureus 20-11; assay type: functional
[14] = test system: Staphylococcus epidermidis; test: Antibacterial activity against methicillin resistant Staphylococcus epidermidis 19-2; assay type: functional
Enterococcus faecium [15] = test: Antibacterial activity against Vanomycin-resistant Enterococcus faecium ATCC 51559; assay type: functional
Staphylococcus aureus [16] = test: Antibacterial activity against methicillin sensitive Staphylococcus aureus 15; assay type: functional
Enterococcus faecium [17] = test: Antibacterial activity against Vanomycin-resistant Enterococcus faecium 15-6; assay type: functional
Staphylococcus aureus [18] = test: Bactericidal activity against methicillin resistant Staphylococcus aureus ATCC 33591; assay type: functional
[19] = test system: Staphylococcus epidermidis; test: Antibacterial activity against methicillin resistant Staphylococcus epidermidis 19-1; assay type: functional
[20] = Cytotoxicity against human HeLa cells by SRB assay; assay type: toxicity, cell-based
Staphylococcus aureus [21] = test: Selectivity ratio of MBC for bactericidal activity against methicillin resistant Staphylococcus aureus 16-30 to MIC for antibacterial activity against methicillin resistant Staphylococcus aureus 16-30; assay type: functional
Staphylococcus aureus [22] = test: Antibacterial activity against methicillin resistant Staphylococcus aureus 16-30; assay type: functional
Staphylococcus aureus [23] = test: Antibacterial activity against methicillin resistant Staphylococcus aureus ATCC 33591; assay type: functional
Staphylococcus aureus [24] = test: Antibacterial activity against methicillin resistant Staphylococcus aureus ATCC 43300; assay type: functional
[25] = test system: Staphylococcus epidermidis; test: Antibacterial activity against methicillin sensitive Staphylococcus epidermidis ATCC 12228; assay type: functional
Staphylococcus aureus [26] = test: Selectivity ratio of MBC for bactericidal activity against methicillin resistant Staphylococcus aureus ATCC 33591 to MIC for antibacterial activity against methicillin resistant Staphylococcus aureus ATCC 33591; assay type: functional
[27] = test system: Staphylococcus epidermidis; test: Antibacterial activity against methicillin sensitive Staphylococcus epidermidis 17-13; assay type: functional
Staphylococcus aureus [28] = test: Antibacterial activity against methicillin sensitive Staphylococcus aureus ATCC 33591; assay type: functional
Enterococcus faecalis [29] = test: Bactericidal activity against Vanomycin-resistant Enterococcus faecalis ATCC 51299; assay type: functional
Enterococcus faecium [30] = test: Selectivity ratio of MBC for bactericidal activity against Vanomycin-resistant Enterococcus faecium ATCC 700221 to MIC for antibacterial activity against Vanomycin-resistant Enterococcus faecium ATCC 700221; assay type: functional
Staphylococcus aureus [31] = test: Selectivity ratio of MBC for bactericidal activity against vancomycin intermediate and methicillin resistant Staphylococcus aureus ATCC 700698 to MIC for antibacterial activity against vancomycin intermediate and methicillin resistant Staphylococcus aureus ATCC 700698; assay type: functional
Enterococcus faecium [32] = test: Bactericidal activity against Vanomycin-resistant Enterococcus faecium ATCC 700221; assay type: functional
Staphylococcus aureus [33] = test: Bactericidal activity against vancomycin intermediate and methicillin resistant Staphylococcus aureus ATCC 700698; assay type: functional
Enterococcus faecalis [34] = test: Selectivity ratio of MBC for bactericidal activity against Vanomycin-resistant Enterococcus faecalis ATCC 51299 to MIC for antibacterial activity against Vanomycin-resistant Enterococcus faecalis ATCC 51299; assay type: functional

| Structure (SMILES) | MBC (Staphylococcus aureus [1]) | MIC (Staphylococcus aureus [2]) | MIC (Enterococcus faecalis [3]) | Ratio (Staphylococcus aureus [4]) | MIC (Staphylococcus aureus [5]) | MIC (Staphylococcus aureus [6]) | MIC (Staphylococcus aureus [7]) | MIC (Staphylococcus aureus [8]) | IC50 [9] | MIC (Enterococcus faecium [10]) | MIC (Enterococcus faecalis [11]) | MBC (Staphylococcus aureus [12]) | MIC (Staphylococcus aureus [13]) | MIC [14] | MIC (Enterococcus faecium [15]) | MIC (Staphylococcus aureus [16]) | MIC (Enterococcus faecium [17]) | MBC (Staphylococcus aureus [18]) | MIC [19] | IC50 [20] | other results |
| --- | --- | --- | --- | --- | --- | --- | --- | --- | --- | --- | --- | --- | --- | --- | --- | --- | --- | --- | --- | --- | --- |
| O=C(Nc1ccc2c(c1)OC(F)(F)O2)Nc1ccc(Cl)c(C(F)(F)F)c1 | 5.07 µM (≈ 2 µg/mL) | 0.63 µM (≈ 0.249 µg/mL) | 5.07 µM (≈ 2 µg/mL) | 4 | 0.63 µM (≈ 0.249 µg/mL) | 1.27 µM (≈ 0.501 µg/mL) | 0.63 µM (≈ 0.249 µg/mL) | 1.27 µM (≈ 0.501 µg/mL) | 5.68 µM | 10.1 µM (≈ 4 µg/mL) | 10.1 µM (≈ 4 µg/mL) | 2.53 µM (≈ 0.999 µg/mL) | 1.27 µM (≈ 0.501 µg/mL) | 1.27 µM (≈ 0.501 µg/mL) | 10.1 µM (≈ 4 µg/mL) | 0.63 µM (≈ 0.249 µg/mL) | 5.07 µM (≈ 2 µg/mL) | 2.53 µM (≈ 0.999 µg/mL) | 1.27 µM (≈ 0.501 µg/mL) | 9.02 µM | Ratio (Staphylococcus aureus [21]): 8; MIC (Staphylococcus aureus [22]): 0.63 µM (≈ 0.249 µg/mL); MIC (Staphylococcus aureus [23]): 0.63 µM (≈ 0.249 µg/mL); MIC (Staphylococcus aureus [24]): 0.63 µM (≈ 0.249 µg/mL); MIC [25]: 1.27 µM (≈ 0.501 µg/mL); Ratio (Staphylococcus aureus [26]): 4; MIC [27]: 1.27 µM (≈ 0.501 µg/mL); MIC (Staphylococcus aureus [28]): 0.63 µM (≈ 0.249 µg/mL) |
| O=C(Nc1ccc(Cl)cc1)Nc1ccc(Cl)c(C(F)(F)F)c1 [CLOFLUCARBAN] | > 22.9 µM | 0.34 µM (≈ 0.119 µg/mL) | 1.43 µM (≈ 0.499 µg/mL) | >64 | 0.34 µM (≈ 0.119 µg/mL) | 1.43 µM (≈ 0.499 µg/mL) | 0.72 µM (≈ 0.251 µg/mL) | 0.34 µM (≈ 0.119 µg/mL) | 7.7 µM | 1.43 µM (≈ 0.499 µg/mL) | 2.86 µM (≈ 0.999 µg/mL) | > 45.8 µM | 0.72 µM (≈ 0.251 µg/mL) | 0.72 µM (≈ 0.251 µg/mL) | 1.43 µM (≈ 0.499 µg/mL) | 0.72 µM (≈ 0.251 µg/mL) | 2.86 µM (≈ 0.999 µg/mL) | > 45.8 µM | 0.72 µM (≈ 0.251 µg/mL) | 4.5 µM | MBC (Enterococcus faecalis [29]): > 183 µM; Ratio (Enterococcus faecium [30]): >64; Ratio (Staphylococcus aureus [31]): >32; MBC (Enterococcus faecium [32]): > 91.7 µM; MBC (Staphylococcus aureus [33]): > 22.9 µM; Ratio (Staphylococcus aureus [21]): >32; MIC (Staphylococcus aureus [22]): 0.72 µM (≈ 0.251 µg/mL); MIC (Staphylococcus aureus [23]): 0.34 µM (≈ 0.119 µg/mL); MIC (Staphylococcus aureus [24]): 0.72 µM (≈ 0.251 µg/mL); MIC [25]: 0.72 µM (≈ 0.251 µg/mL); Ratio (Staphylococcus aureus [26]): >135; MIC [27]: 0.72 µM (≈ 0.251 µg/mL); MIC (Staphylococcus aureus [28]): 0.34 µM (≈ 0.119 µg/mL); Ratio (Enterococcus faecalis [34]): >128 |
| O=C(Nc1ccc(Cl)c(C(F)(F)F)c1)Nc1ccc(Cl)c(C(F)(F)F)c1 | 9.59 µM (≈ 4 µg/mL) | 1.2 µM (≈ 0.501 µg/mL) | 4.79 µM (≈ 2 µg/mL) | 8 | 1.2 µM (≈ 0.501 µg/mL) | 1.2 µM (≈ 0.501 µg/mL) | 1.2 µM (≈ 0.501 µg/mL) | 1.2 µM (≈ 0.501 µg/mL) | 7.72 µM | 4.79 µM (≈ 2 µg/mL) | 4.79 µM (≈ 2 µg/mL) | 9.59 µM (≈ 4 µg/mL) | 1.2 µM (≈ 0.501 µg/mL) | 1.2 µM (≈ 0.501 µg/mL) | 4.79 µM (≈ 2 µg/mL) | 1.2 µM (≈ 0.501 µg/mL) | 2.4 µM (≈ 1 µg/mL) | 4.79 µM (≈ 2 µg/mL) | 1.2 µM (≈ 0.501 µg/mL) | 2.69 µM | Ratio (Staphylococcus aureus [21]): 8; MIC (Staphylococcus aureus [22]): 1.2 µM (≈ 0.501 µg/mL); MIC (Staphylococcus aureus [23]): 1.2 µM (≈ 0.501 µg/mL); MIC (Staphylococcus aureus [24]): 1.2 µM (≈ 0.501 µg/mL); MIC [25]: 1.2 µM (≈ 0.501 µg/mL); Ratio (Staphylococcus aureus [26]): 4; MIC [27]: 1.2 µM (≈ 0.501 µg/mL); MIC (Staphylococcus aureus [28]): 1.2 µM (≈ 0.501 µg/mL) |
| O=C(Nc1ccc(OC(F)(F)F)cc1)Nc1ccc(Cl)c(C(F)(F)F)c1 | > 80.3 µM | 0.63 µM (≈ 0.251 µg/mL) | 2.51 µM (≈ 1 µg/mL) | >255 | 0.15 µM (≈ 0.0598 µg/mL) | 1.25 µM (≈ 0.498 µg/mL) | 0.63 µM (≈ 0.251 µg/mL) | 0.3 µM (≈ 0.12 µg/mL) | 6.27 µM | 1.25 µM (≈ 0.498 µg/mL) | 2.51 µM (≈ 1 µg/mL) | > 161 µM | 0.63 µM (≈ 0.251 µg/mL) | 1.25 µM (≈ 0.498 µg/mL) | 2.51 µM (≈ 1 µg/mL) | 1.25 µM (≈ 0.498 µg/mL) | 2.51 µM (≈ 1 µg/mL) | > 161 µM | 1.25 µM (≈ 0.498 µg/mL) | 9.31 µM | MBC (Enterococcus faecalis [29]): > 321 µM; Ratio (Enterococcus faecium [30]): >257; Ratio (Staphylococcus aureus [31]): >255; MBC (Enterococcus faecium [32]): > 321 µM; MBC (Staphylococcus aureus [33]): > 161 µM; Ratio (Staphylococcus aureus [21]): >32; MIC (Staphylococcus aureus [22]): 2.51 µM (≈ 1 µg/mL); MIC (Staphylococcus aureus [23]): 1.25 µM (≈ 0.498 µg/mL); MIC (Staphylococcus aureus [24]): 0.63 µM (≈ 0.251 µg/mL); MIC [25]: 1.25 µM (≈ 0.498 µg/mL); Ratio (Staphylococcus aureus [26]): >128; MIC [27]: 0.63 µM (≈ 0.251 µg/mL); MIC (Staphylococcus aureus [28]): 1.25 µM (≈ 0.498 µg/mL); Ratio (Enterococcus faecalis [34]): >128 |
| O=C(Nc1ccc(Cl)c(C(F)(F)F)c1)Nc1cc(F)c(F)c(F)c1F | 10.3 µM (≈ 4 µg/mL) | 0.31 µM (≈ 0.12 µg/mL) | 2.59 µM (≈ 1 µg/mL) | 33 | 0.31 µM (≈ 0.12 µg/mL) | 0.65 µM (≈ 0.251 µg/mL) | 0.31 µM (≈ 0.12 µg/mL) | 0.31 µM (≈ 0.12 µg/mL) | 7.09 µM | 1.29 µM (≈ 0.499 µg/mL) | 5.17 µM (≈ 2 µg/mL) | 10.3 µM (≈ 4 µg/mL) | 0.31 µM (≈ 0.12 µg/mL) | 0.65 µM (≈ 0.251 µg/mL) | 1.29 µM (≈ 0.499 µg/mL) | 0.31 µM (≈ 0.12 µg/mL) | 1.29 µM (≈ 0.499 µg/mL) | 10.3 µM (≈ 4 µg/mL) | 0.31 µM (≈ 0.12 µg/mL) | 8.9 µM | MBC (Enterococcus faecalis [29]): > 82.8 µM; Ratio (Enterococcus faecium [30]): >32; Ratio (Staphylococcus aureus [31]): 33; MBC (Enterococcus faecium [32]): > 82.8 µM; MBC (Staphylococcus aureus [33]): 10.3 µM (≈ 4 µg/mL); Ratio (Staphylococcus aureus [21]): 16; MIC (Staphylococcus aureus [22]): 0.65 µM (≈ 0.251 µg/mL); MIC (Staphylococcus aureus [23]): 0.31 µM (≈ 0.12 µg/mL); MIC (Staphylococcus aureus [24]): 0.31 µM (≈ 0.12 µg/mL); MIC [25]: 0.65 µM (≈ 0.251 µg/mL); Ratio (Staphylococcus aureus [26]): 33; MIC [27]: 0.31 µM (≈ 0.12 µg/mL); MIC (Staphylococcus aureus [28]): 0.31 µM (≈ 0.12 µg/mL); Ratio (Enterococcus faecalis [34]): >32 |
